We go through three molecules from patent publication US12383551B2, “Methods and compositions for maintaining opioid efficacy in the treatment of pain” (East Carolina University, priority 2017, dated 2025).

Series [1] deals with sham or SCI animals. Kind of series: Conditioned Place Preference (CPP), addictive potential. As to conditions: for CPP to morphine: added to morphine at either dose (1.0 or 2.5 mg/kg), sham or SCI animals.
Description: Methods: 55 female, Long-Evans rats were tested for mechanical thresholds prior to receiving a spinal contusion (SCI) or sham surgery. […] Conditioned Place Preference (CPP) to each drug combination was assessed to determine the addictive potential of that specific combination.
Mechanical thresholds were assessed in 3-5 month old female Long-Evans rats before and ˜21 days after a mild, traumatic SCI (contusion model). […] Conditioned place preference was performed under each drug condition (5 days alternating drug/vehicle pairing, with testing on day 6).
The test system of series [2] is rat model of chronic neuropathic pain. As to the kind of experiment: Pain withdrawal responses in a rat model of chronic neuropathic pain (pilot studies). It is filed as in vivo. As to conditions: low-dose morphine.
Series [3] has as its system animals.
Series [4] deals with sham animals. Kind of series: Mechanical pain thresholds / analgesia in sham (healthy control) animals. It is filed as in vivo, Long-Evans rats. The following applies: FIG. 2 Panel A, acute treatment. As to the method: (§1) Methods: 55 female, Long-Evans rats were tested for mechanical thresholds prior to receiving a spinal contusion (SCI) or sham surgery. Mechanical pain thresholds were measured 21-27 days post-surgery under the following conditions: Morphine alone (1.0 or 2.5 mg/kg); Morphine (1.0 or 2.5 mg/kg)+0.1 mg/kg Pramipexole (PRAM; D3R agonist); Morphine (2.5 mg/kg)+0.1 mg/kg SCH23390 (SCH: D1R antagonist); 0.1 mg/kg Pramipexole alone; 0.1 mg/kg SCH23390 alone. Conditioned Place Preference (CPP) to each drug combination was assessed to determine the addictive potential of that specific combination.
(§2) Mechanical thresholds were assessed in 3-5 month old female Long-Evans rats before and ˜21 days after a mild, traumatic SCI (contusion model). Thresholds were re-assessed after i.p. injection of: Morphine 1.0 mg/kg with and without 0.1 mg/kg pramipexole (PRAM) or Morphine 2.5 mg/kg with and without 0.1 mg/kg PRAM. Conditioned place preference was performed under each drug condition (5 days alternating drug/vehicle pairing, with testing on day 6). Western blotting determined expression of D3R, D1R and u-opioid receptor (MOR) in the lumbar spinal cord.

In series [5] the test system is SCI animals. Kind of series: Mechanical pain thresholds / analgesia in animals with spinal cord injury (contusion model). It is filed as in vivo, Long-Evans rats. The following applies: FIG. 2 Panel B. How it is done: as §1, §2

SMILES strings stand for the structures.

`CCCN[C@H]1CCc2nc(N)sc2C1` [PRAM, pramipexole]: in series [1], the CPP to morphine entry is on record as “Neither PRAM nor SCH exacerbated CPP to morphine”.

Take `CN1CCc2cc(Cl)c(O)cc2[C@@H](c2ccccc2)C1` [SCH, SCH23390]: in series [1], the CPP to morphine result is reported as “Neither PRAM nor SCH exacerbated CPP to morphine”.

`CN1CC[C@]23c4c5ccc(O)c4O[C@H]2[C@@H](O)C=C[C@H]3[C@H]1C5` [morphine]: in series [2], the “modulating pain withdrawal responses / opioid efficacy” value is recorded as “became ineffective”. Further, the “analgesic effect after long-term application” value in series [3] (FIG. 3, long-term application, 2 weeks) is on record as “complete loss of analgesic effect after 2 weeks”. The “development of morphine tolerance” value in series [3] (parallel preliminary studies) was “became tolerant”. Further, the “preference for the drug-paired chamber” value in series [1] (FIG. 4) is “induces preference for the drug-paired chamber”. Besides, the analgesia result in series [4] is “improves analgesia significantly”; in series [5], “neither morphine nor PRAM have any analgesic effect”.
